Reference: PubChem BioAssay (NCI)
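48-hour exposure; five concentrations; linearly interpolated endpoints. GI50 = concentration required for 50% inhibition of growth. The concentration for full growth arrest is given as TGI.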

Experiments:
Assay in all cases: growth of human tumour cells (NCI), 48 h
U251 CNS = tested on: U251 CNS
K-562 leukemia = tested on: K-562 leukemia
MDA-MB-231 breast = tested on: MDA-MB-231 breast
LOX IMVI melanoma = tested on: LOX IMVI melanoma
A498 renal = tested on: A498 renal
RPMI-8226 leukemia = tested on: RPMI-8226 leukemia
HS 578T breast = tested on: HS 578T breast
UACC-257 melanoma = tested on: UACC-257 melanoma
BT-549 breast = tested on: BT-549 breast
OVCAR-3 ovarian = tested on: OVCAR-3 ovarian
NCI-H460 lung = tested on: NCI-H460 lung
HL-60(TB) leukemia = tested on: HL-60(TB) leukemia
RXF 393 renal = tested on: RXF 393 renal
CCRF-CEM leukemia = tested on: CCRF-CEM leukemia
SK-OV-3 ovarian = tested on: SK-OV-3 ovarian
CAKI-1 renal = tested on: CAKI-1 renal
OVCAR-4 ovarian = tested on: OVCAR-4 ovarian
MCF7 breast = tested on: MCF7 breast
HT29 colon = tested on: HT29 colon
SK-MEL-28 melanoma = tested on: SK-MEL-28 melanoma
PC-3 prostate = tested on: PC-3 prostate
HCT-116 colon = tested on: HCT-116 colon
HCC-2998 colon = tested on: HCC-2998 colon
MOLT-4 leukemia = tested on: MOLT-4 leukemia
SNB-19 CNS = tested on: SNB-19 CNS
OVCAR-8 ovarian = tested on: OVCAR-8 ovarian
MDA-MB-435 = tested on: MDA-MB-435
NCI-H522 lung = tested on: NCI-H522 lung
HOP-62 NSCLC = tested on: HOP-62 NSCLC
NCI-H226 lung = tested on: NCI-H226 lung
NCI/ADR-RES ovarian = tested on: NCI/ADR-RES ovarian
HCT-15 colon = tested on: HCT-15 colon
COLO 205 colon = tested on: COLO 205 colon
ACHN renal = tested on: ACHN renal
HOP-92 NSCLC = tested on: HOP-92 NSCLC
SNB-75 CNS = tested on: SNB-75 CNS
SW-620 colon = tested on: SW-620 colon
KM12 colon = tested on: KM12 colon
OVCAR-5 ovarian = tested on: OVCAR-5 ovarian
SK-MEL-5 melanoma = tested on: SK-MEL-5 melanoma
UACC-62 melanoma = tested on: UACC-62 melanoma
SF-268 CNS = tested on: SF-268 CNS
SF-539 CNS = tested on: SF-539 CNS
EKVX NSCLC = tested on: EKVX NSCLC
SF-295 CNS = tested on: SF-295 CNS
TK-10 renal = tested on: TK-10 renal
M14 melanoma = tested on: M14 melanoma
T-47D breast = tested on: T-47D breast
NCI-H23 lung = tested on: NCI-H23 lung
SK-MEL-2 melanoma = tested on: SK-MEL-2 melanoma
A549 NSCLC = tested on: A549 NSCLC
DU-145 prostate = tested on: DU-145 prostate
SR leukemia = tested on: SR leukemia
786-0 renal = tested on: 786-0 renal
SN12C renal = tested on: SN12C renal

C(=C1c2ccccc2-c2ccccc21)c1ccncc1
GI50 (U251 CNS): 3.78 µM | TGI (U251 CNS): 16 µM | GI50 (K-562 leukemia): 4.35 µM | TGI (K-562 leukemia): > 100 µM | GI50 (MDA-MB-231 breast): 6.75 µM | TGI (MDA-MB-231 breast): 23.1 µM | GI50 (LOX IMVI melanoma): 5.19 µM | TGI (LOX IMVI melanoma): 18.9 µM | GI50 (A498 renal): 2.25 µM | TGI (A498 renal): 10.7 µM | GI50 (RPMI-8226 leukemia): 7.65 µM | TGI (RPMI-8226 leukemia): 63.4 µM | GI50 (HS 578T breast): 3.77 µM | TGI (HS 578T breast): 14.1 µM | GI50 (UACC-257 melanoma): 11.6 µM | TGI (UACC-257 melanoma): 26.7 µM | GI50 (BT-549 breast): 10 µM | TGI (BT-549 breast): 22.4 µM | GI50 (OVCAR-3 ovarian): 2.5 µM | TGI (OVCAR-3 ovarian): 6.75 µM | GI50 (NCI-H460 lung): 3.87 µM | TGI (NCI-H460 lung): 13.7 µM | GI50 (HL-60(TB) leukemia): 4.33 µM | TGI (HL-60(TB) leukemia): 22.2 µM | GI50 (RXF 393 renal): 5.69 µM | TGI (RXF 393 renal): 21.7 µM | GI50 (CCRF-CEM leukemia): 5.36 µM | TGI (CCRF-CEM leukemia): 72.9 µM | GI50 (SK-OV-3 ovarian): 6.76 µM | TGI (SK-OV-3 ovarian): 24.5 µM | GI50 (CAKI-1 renal): 2.64 µM | TGI (CAKI-1 renal): 10.9 µM | GI50 (OVCAR-4 ovarian): 12.1 µM | TGI (OVCAR-4 ovarian): 25.6 µM | GI50 (MCF7 breast): 3.92 µM | TGI (MCF7 breast): 14.6 µM | GI50 (HT29 colon): 4.06 µM | TGI (HT29 colon): 13.9 µM | GI50 (SK-MEL-28 melanoma): 10.6 µM | TGI (SK-MEL-28 melanoma): 24.2 µM | GI50 (PC-3 prostate): 13.4 µM | TGI (PC-3 prostate): > 100 µM | GI50 (HCT-116 colon): 3.84 µM | TGI (HCT-116 colon): 14.3 µM | GI50 (HCC-2998 colon): 11.3 µM | TGI (HCC-2998 colon): 24.5 µM | GI50 (MOLT-4 leukemia): 5.04 µM | TGI (MOLT-4 leukemia): 35 µM | GI50 (SNB-19 CNS): 5.81 µM | TGI (SNB-19 CNS): 19.5 µM | GI50 (OVCAR-8 ovarian): 7.99 µM | TGI (OVCAR-8 ovarian): 24.9 µM | GI50 (MDA-MB-435): 1.81 µM | TGI (MDA-MB-435): 4.85 µM | GI50 (NCI-H522 lung): 5.78 µM | TGI (NCI-H522 lung): 20.4 µM | GI50 (HOP-62 NSCLC): 5.35 µM | TGI (HOP-62 NSCLC): 24.3 µM | GI50 (NCI-H226 lung): 11.6 µM | TGI (NCI-H226 lung): 31.7 µM | GI50 (NCI/ADR-RES ovarian): 3.88 µM | TGI (NCI/ADR-RES ovarian): 16.2 µM | GI50 (HCT-15 colon): 4.51 µM | TGI (HCT-15 colon): 18.9 µM | GI50 (COLO 205 colon): 5.32 µM | TGI (COLO 205 colon): 18.3 µM | GI50 (ACHN renal): 10.6 µM | TGI (ACHN renal): 28 µM | GI50 (HOP-92 NSCLC): 11.2 µM | TGI (HOP-92 NSCLC): 25.4 µM | GI50 (SNB-75 CNS): 6.5 µM | TGI (SNB-75 CNS): 24.6 µM | GI50 (SW-620 colon): 4.22 µM | TGI (SW-620 colon): 17.1 µM | GI50 (KM12 colon): 3.24 µM | TGI (KM12 colon): 11.9 µM | GI50 (OVCAR-5 ovarian): 13.8 µM | TGI (OVCAR-5 ovarian): 33.2 µM | GI50 (SK-MEL-5 melanoma): 4.64 µM | TGI (SK-MEL-5 melanoma): 16.7 µM | GI50 (UACC-62 melanoma): 5.14 µM | TGI (UACC-62 melanoma): 18.6 µM | GI50 (SF-268 CNS): 6.39 µM | TGI (SF-268 CNS): 19.8 µM | GI50 (SF-539 CNS): 5.62 µM | TGI (SF-539 CNS): 19.4 µM | GI50 (EKVX NSCLC): 3.48 µM | TGI (EKVX NSCLC): 15.4 µM | GI50 (SF-295 CNS): 1.98 µM | TGI (SF-295 CNS): 5.28 µM | GI50 (TK-10 renal): 13 µM | TGI (TK-10 renal): 26.9 µM | GI50 (M14 melanoma): 4.39 µM | TGI (M14 melanoma): 15.7 µM | GI50 (T-47D breast): 6.04 µM | TGI (T-47D breast): 42.5 µM | GI50 (NCI-H23 lung): 9.94 µM | TGI (NCI-H23 lung): 26.6 µM | GI50 (SK-MEL-2 melanoma): 10.6 µM | TGI (SK-MEL-2 melanoma): 26.4 µM | GI50 (A549 NSCLC): 4.65 µM | TGI (A549 NSCLC): 19.3 µM | GI50 (DU-145 prostate): 8.28 µM | TGI (DU-145 prostate): 20.9 µM | GI50 (SR leukemia): 3.34 µM | TGI (SR leukemia): 50.1 µM | GI50 (786-0 renal): 8.17 µM | TGI (786-0 renal): 22.7 µM | GI50 (SN12C renal): 7.45 µM | TGI (SN12C renal): 21.6 µM
